This passage reports melting point results from a melting point compilation (Tetko et al.; mined from patent text by program, amines drawn as free bases though some values may be those of a salt).

The structures appear in SMILES notation.

A word on the melting point: it is the temperature, or range, at which the solid turns liquid. `CCN(C1CC(C)(C)Oc2ccc(OCCO)cc21)S(C)(=O)=O` (stereo unspecified): the melting point was in the range of 76 to 78 °C. Consider `CC(C)(C)n1nc(Nc2ccccc2)c(C#N)c1N`, for which the melting point lay in the range of 123 to 125 °C. `CCN(CC)C(=O)COC(=O)c1ccc(O)cc1` came in with a melting point of 148 to 149 °C. In turn, `COc1ccc(S(=O)(=O)Nc2cccnc2Nc2ccc(O)c(C)c2)cc1` yielded a melting point of 89 to 91 °C. As to `Cc1nn(-c2ccc(Br)cc2)cc1C(=O)N(CC(=O)O)c1ccc(OCC(C)(C)C)c(C#N)c1`, the melting point was 169 to 170 °C.

In the case of `Cc1ccc(S(=O)(=O)n2ccc(-c3ccc(F)cc3)c2-c2ccc(S(C)(=O)=O)cc2)cc1`, the melting point fell in the range of 228 to 229 °C. In turn, `c1ccc(N=C2N=C(c3ccccc3)N=C2Nc2ccccc2)cc1` registered a melting point of 201 °C. In turn, `CCC(=O)OCc1nc(-c2ccc(OC)c(OC)c2)c2cc(OC)c(OC)cc2c1CC` registered a melting point of 125 to 127 °C. For `CCn1nnc(NC(=O)C2c3ccccc3COc3ccccc32)n1` (racemic) the value was 158 to 159 °C; for `O=C(NCCN(C1CC1)S(=O)(=O)c1ccccc1[N+](=O)[O-])N1CCN2C(=O)OC(c3ccccc3)(c3ccccc3)C2C1` (stereo unspecified), 136 to 138 °C; for `CC1(C)CC(=O)c2cc(C#N)c(N3CCN(c4ccccc4)CC3)nc2C1`, 167 to 170 °C. Then `CC(=O)c1c(N(C)C)c(-c2ccccc2)n(Cc2ccccc2Cl)c1C`, with 103 to 105 °C.

In turn, `CC1=C(c2ccc(C(=O)O)cc2)CCCC1` came in with a melting point of 176 to 178 °C. For `COc1ccc(-c2cncc3cccc([N+](=O)[O-])c23)c(O)c1OC` the value was 170 to 174 °C; for `CC1(C2=C(O)C(=O)c3ccccc3C2=O)CCCC1`, 116 to 118 °C. Take `CCC(COCc1cccc(Cl)c1)n1cnc2c(N)nc3ccccc3c21` (stereo unspecified): the melting point lay in the range of 60 to 62 °C. In turn, `On1c(C(F)(F)F)nc2nc(Cl)c(Cl)cc21` came in with a melting point of 207 to 208 °C. `CC(C)n1cc(C(=O)Nc2nccs2)c2ccc(O)cc21` returned a melting point of 239 to 241 °C. Then `COC(=O)CCc1nsc2ccc(-n3c(=O)cc(C(F)(F)F)n(C)c3=O)cc12`, with 176 to 178 °C.

With `O=[N+]([O-])c1ccc(F)c(-c2cncnc2)c1F`, the melting point lay within 78 to 80 °C.

Regarding `CS(=O)(=O)c1ccc(-n2nc(C(F)(F)F)cc2-c2nc3cc(F)ccc3s2)cc1`, the melting point is 204 to 205 °C. For `CC(=O)SCC(C(=O)NC(Cc1ccc(O)cc1)C(=O)O)C(F)(F)F` (stereo unspecified) the value was 170 to 173 °C. The molecule `O=C(NC(=O)c1c(F)cccc1F)Nc1cc(Cl)c(OCC(F)(F)F)cc1F` came in with a melting point of 201 to 202 °C. `CC12C=CCC1C1CCC3=CC(=O)CCC3=C1CC2` (stereo unspecified) yielded a melting point of 87 to 92 °C.

Consider `CCOC(=O)C1=C(CSC(=N)N)NC(C)=C(C(=O)OC)C1c1cccc([N+](=O)[O-])c1` (single isomer, unassigned; (+)), for which the melting point fell in the range of 122 to 124 °C. In turn, `O=S(=O)(NCCCCOc1ccc(-c2ccncn2)cc1)c1ccc(Br)cc1` yielded a melting point of 131 to 133 °C. The molecule `Cc1c(F)cc(C(=O)NC2CC2)cc1I` came in with a melting point of 112 to 114 °C. For `O=C1N(CC2CCN(c3ccccn3)CC2)c2ccccc2C12COc1cc3c(cc12)OCO3` (stereo unspecified) the value was 95 to 97 °C; for `CCOC(=O)CCN(CC(N)=O)C(=O)Cn1cc(C)c(=O)[nH]c1=O`, 207 to 208 °C. `COc1cccc(CCCC(=O)O)c1C` showed a melting point of 105 to 107 °C. Then `CC(N(C(=O)c1ccc(C(F)(F)F)cc1)[C@H](C)C(=O)O)[C@](O)(Cn1cncn1)c1ccc(F)cc1F` (mixture of isomers), with 219 to 221 °C.

The molecule `ON=Cc1cccc(Oc2ccccc2)c1` displayed a melting point of 45 to 46 °C. For `C[C@H]1CCCC(C)(C)[C@@H]1C(=O)O` the value was 44 to 54 °C. For the molecule `COc1cc2c3c(c1)c(=O)c(Cc1cccnc1)cn3-c1ccc(Br)cc1S2`, the melting point lay in the range of 157 to 159 °C. For `CCCCN(CCCC)c1ccc(C=CC2=C(C#N)C(=C(C#N)C#N)OC2(C)C)c(O[Si](c2ccccc2)(c2ccccc2)C(C)(C)C)c1` the value was 220 to 221 °C; for `O=c1[nH]ccc2c1C(c1cccc(Cl)c1)N=C(c1ccccc1)N2` (stereo unspecified), 172 to 173 °C. For `O=C(O)c1ccc(C(=O)NOCCCc2ccccc2)cc1` the value was 171 to 173 °C; for `COc1ccccc1C1(O[Si](C)(C)C)C(=O)Nc2cc(C)c(Cl)cc21` (stereo unspecified), 227 °C.

`COc1cc(C2CCN(CCF)CC2)ccc1Nc1ncc2ccc(-c3ccccc3N(C)S(C)(=O)=O)n2n1` returned a melting point of 90 to 97 °C.

`CNC(=O)c1cnn(-c2cccc(Cl)c2)c1Cl` yielded a melting point of 163 to 165 °C.

In the case of `CC(C)CC(CS)C(=O)NCC(=O)NC(CCCNC(=N)N)C(=O)O` (stereo unspecified), the melting point lay in the range of 132 to 146 °C. With `C#Cc1ccnc(-c2ccc(-c3ccccc3C#C)c([N+](=O)[O-])c2)c1`, the melting point lay in the range of 144 to 146 °C.

On to `Cc1cc(C)c(C(=O)P(=S)(C(=O)c2c(C)cc(C)cc2C)c2ccccc2)c(C)c1`, for which the melting point was 123 °C. For `OC(Cn1cncn1)c1ccc(Oc2ccc(Br)cc2)cc1Cl` (stereo unspecified) the value was 115 to 118 °C; for `O=C(O)Cc1cc(C(=O)c2ccc3cc(-c4ccccc4)[nH]c3c2)sc1-c1ccccc1`, 238 to 240 °C. For `Cc1cn(-c2cc(N)cc(C(F)(F)F)c2)cn1` the value was 123 to 124 °C; for `CC12CC(c3ccc(N)cc3)(C1)C(=O)NC2=O`, 216 °C; for `Cc1c(C)c2c(c(C)c1N)C(c1cccnc1)C(C)(C)O2` (stereo unspecified), 130 to 131 °C.

Molecule `FC(F)(F)c1ccc(-c2cc(C(F)(F)F)n3cnc(I)c3n2)cc1` gave a melting point of 141 °C.

On to `CC(C)N(NC(=O)OC(C)(C)C)C(=O)NCC(F)(F)F`, for which the melting point is 90 to 94 °C.

For the molecule `COC(=O)N1OCC(=Cc2cc(C(C)(C)C)c(O)c(C(C)(C)C)c2)C1=O`, the melting point is 191 to 192 °C. As for `COC(=O)c1cnn(-c2ccc(Cl)cc2Cl)c1N`, the melting point lay in the range of 143 to 145 °C. Consider `CC(C)NC(=O)n1nc(Oc2c(Cl)cc(C(F)(F)F)cc2Cl)cc1C(Cl)(Cl)Cl`, for which the melting point was in the range of 105 to 106 °C. For `CC1CN(Cn2cc(C#N)c(-c3cccc(Cl)c3Cl)c2)CC(C)O1` (stereo unspecified) the value was 91 to 97 °C; for `Cc1noc(NS(=O)(=O)c2cc(Cl)sc2Cl)c1Br`, 135 to 138 °C. Then `COc1ccc(-c2ccc3c(c2)C=C(C(=O)Nc2ccc(CN(C)C4CCC(=O)CC4)cc2)CCS3(=O)=O)cc1`, with 214 to 218 °C; and `N#CNC(=NC1CCN(Cc2ccccc2)CC1)N1Cc2ccccc2C1`, with 191 to 192 °C; and `O=C1C=C(c2ccc(Cl)c(Cl)c2)C(=O)N1Nc1ccccc1`, with 208 to 210 °C. Then `N#Cc1ccc(C2=Nc3ccccc3C(=O)C2=Cc2ccncc2)cc1`, with 154 to 156 °C.

With `COc1ccc(C(=O)Nc2ccccc2)cc1NC(=S)Nc1ccc(Cl)c([N+](=O)[O-])c1`, the melting point lay within 174 to 175 °C. As to `CC(C)NCC(O)COc1cccc2c1C(=Cc1ccccc1)C(=O)N2` (stereo unspecified), the melting point was in the range of 163 to 165 °C.
